The values below come from patent US8304446B2, “Compounds” (Glaxo Group Limited, priority 2009, dated 2012).

The assay has as its system CD4+ CCR4+ T cells. The experiment in a line: Chemokine stimulated increases in cellular F-actin content. It counts as cell-based. The note with it: Homo sapiens, T-cell, 0.5 h; PBMC from normal volunteers; antagonist 30 min at 37° C. before agonist for 15 sec; F-actin content by flow cytometry; read-out: pA2 (converted). On the procedure: Chemokine Stimulated Increases in Cellular F-Actin Content
Blood was taken from normal volunteers who had taken no medication within the previous ten days and mixed with 1/9 of the volume of 3.8% tri-sodium citrate solution. Chemokine-induced increases in the F-actin content of CD4+ CCR4+ T cells were measured by a modification of the method of Pilette et al. (Eur. Respir. J; 23: 876-884, 2004). Peripheral blood mononuclear cells (PBMC) were isolated by dextran sedimentation followed by Percoll density gradient centrifugation. The PBMCs were incubated with FITC-conjugated anti-human CD4 and PE-conjugated anti-CCR4 antibodies or appropriate isotype controls for 15 min. The cell suspensions were then centrifuged at 400 g for 10 min and the pellets resuspended in assay buffer (phenol red-free RPMI 1640 medium containing 10 mM HEPES and 0.1% bovine serum albumin) at 10^7/mL. The resulting cell suspension was incubated with antagonist or vehicle (0.1% DMSO) for 30 min at 37° C. before stimulation with the agonist for 15 sec. The assay was terminated by addition of 3% formaldehyde. The fixed cells were washed twice with PBS (centrifuging at 1000 g for 5 min to recover the cells) and incubated at room temperature with Alexa fluor-647 phalloidin (0.075 U/mL) in the presence of lyso-phosphatidylcholine (93.75 μg/ml) for 20 min to stain F-actin. The cells were washed once more with PBS and the relative F-actin content of the cells was measured flow cytometrically. The mean fluorescence intensity of 1000 CD4^+ CCR4^+ cells per sample was determined and expressed as a fraction of the mean intensity of the CD4^+ CCR4^− cells in that sample.
In general terms: In flow cytometry, cells or beads pass a laser one at a time.

Where a name gives a salt, the structure may show the parent alone.

With `COc1cccc2c1c(NS(=O)(=O)c1ccc(Cl)s1)nn2Cc1cccc(CNC(=O)c2ccoc2)c1` [Example 41, N-[(3-{[3-{[(5-Chloro-2-thienyl)sulfonyl]amino}-4-(methyloxy)-1H-indazol-1-yl]methyl}phenyl)methyl]-3-furancarboxamide], the Kb is at most 126 nM.
Then `COCCN(C)CC(=O)NCc1cccc(Cn2nc(NS(=O)(=O)c3ccc(Cl)s3)c3c(OC)cccc32)c1` [Example 36, N^1-[(3-{[3-{[(5-Chloro-2-thienyl)sulfonyl]amino}-4-(methyloxy)-1H-indazol-1-yl]methyl}phenyl)methyl]-N^2-methyl-N^2-[2-(methyloxy)ethyl]glycinamide trifluoroacetate], with at most 126 nM.
Regarding `COc1cc(Cn2nc(NS(=O)(=O)c3ccc(Cl)s3)c3c(OC)cccc32)ccc1OCCN(C)C` [Example 76, 5-Chloro-N-[1-{[4-{[2-(dimethylamino)ethyl]oxy}-3-(methyloxy)phenyl]methyl}-4-(methyloxy)-1H-indazol-3-yl]-2-thiophenesulfonamide], the Kb is at most 126 nM.
For `COc1cccc2c1c(NS(=O)(=O)c1ccc(Cl)s1)nn2Cc1cccc(CNC(=O)C2CCCCN2C)c1` (centres unmarked) [Example 42, N-[(3-{[3-{[(5-chloro-2-thienyl)sulfonyl]amino}-4-(methyloxy)-1H-indazol-1-yl]methyl}phenyl)methyl]-1-methyl-2-piperidinecarboxamide trifluoroacetate] the value was at most 126 nM; for `COc1cccc2c1c(NS(=O)(=O)c1ccc(Cl)s1)nn2Cc1cccc(CNC(=O)[C@H]2CCCCN2)c1` [Example 9, (2R)—N-[(3-{[3-{[(5-chloro-2-thienyl)sulfonyl]amino}-4-(methyloxy)-1H-indazol-1-yl]methyl}phenyl)methyl]-2-piperidinecarboxamide trifluoroacetate salt], at most 126 nM; for `COc1cccc2c1c(NS(=O)(=O)c1ccc(Br)s1)nn2Cc1cccc(C(N)=O)c1` [Example 67, 3-{[3-{[(5-Bromo-2-thienyl)sulfonyl]amino}-4-(methyloxy)-1H-indazol-1-yl]methyl}benzamide], at most 126 nM.
Take `COc1cccc2c1c(NS(=O)(=O)c1ccc(Cl)s1)nn2Cc1cccc(CNC(=O)C2CCCO2)c1` (centres unmarked) [Example 89, N-[(3-{[3-{[(5-Chloro-2-thienyl)sulfonyl]amino}-4-(methyloxy)-1H-indazol-1-yl]methyl}phenyl)methyl]tetrahydro-2-furancarboxamide]: the Kb is at most 126 nM.
Then `COc1cccc2c1c(NS(=O)(=O)c1ccc(Cl)s1)nn2Cc1cccc(CNC(=O)[C@H](C)N(C)C)c1` [Example 31, N^1-[(3-{[3-{[(5-Chloro-2-thienyl)sulfonyl]amino}-4-(methyloxy)-1H-indazol-1-yl]methyl}phenyl)methyl]-N^2,N^2-dimethylalaninamide trifluoroacetate], with at most 126 nM; and `O=C(NCc1cccc(Cn2nc(NS(=O)(=O)c3ccc(Cl)s3)c3c(O)cccc32)c1)[C@@H]1COCCN1` [Example 166, (3S)—N-({3-[(3-{[(5-Chloro-2-thienyl)sulfonyl]amino}-4-hydroxy-1H-indazol-1-yl)methyl]phenyl}methyl)-3-morpholinecarboxamide formate salt], with at most 126 nM.
Then `COc1cccc2c1c(NS(=O)(=O)c1ccc(C)s1)nn2Cc1cccc(CNC(=O)[C@H]2COCCN2)c1` [Example 160, (3R)—N-({3-[(4-(Methyloxy)-3-{[(5-methyl-2-thienyl)sulfonyl]amino}-1H-indazol-1-yl)methyl]phenyl}methyl)-3-], with at most 126 nM; and `COc1cccc2c1c(NS(=O)(=O)c1ccc(Cl)s1)nn2Cc1cccc(CNC(=O)CO)c1` [Example 32, N-[(3-{[3-{[(5-Chloro-2-thienyl)sulfonyl]amino}-4-(methyloxy)-1H-indazol-1-yl]methyl}phenyl)methyl]-2-hydroxyacetamide], with at most 126 nM; and `COc1cccc2c1c(NS(=O)(=O)c1ccc(Cl)s1)nn2Cc1ccc(OCCN(C)C)cc1` [Example 75, 5-Chloro-N-[1-[(4-{[2-(dimethylamino)ethyl]oxy}phenyl)methyl]-4-(methyloxy)-1H-indazol-3-yl]-2-thiophenesulfonamide], with at most 126 nM.
Regarding `COc1cccc2c1c(NS(=O)(=O)c1ccc(Cl)s1)nn2Cc1cccc(CNC(=O)C(C)(C)CN)c1` [Example 11, 3-Amino-N-[(3-{[3-{[(5-chloro-2-thienyl)sulfonyl]amino}-4-(methyloxy)-1H-indazol-1-yl]methyl}phenyl)methyl]-2,2-dimethylpropanamide hydrochloride], the Kb is at most 126 nM.
On to `COc1cccc2c1c(NS(=O)(=O)c1ccc(Cl)s1)nn2Cc1cccc(CNC(=O)NC(C)(C)C)c1` [Example 60, 5-Chloro-N-[1-({3-[({[(1,1-dimethylethyl)amino]carbonyl}amino)methyl]phenyl}methyl)-4-(methyloxy)-1H-indazol-3-yl]-2-thiophenesulfonamide], for which the Kb was at most 126 nM.
With `NC(=O)c1cccc(Cn2nc(NS(=O)(=O)c3ccc(Cl)s3)c3c(O)ccc(F)c32)c1` [Example 69, 3-[(3-{[(5-Chloro-2-thienyl)sulfonyl]amino}-7-fluoro-4-hydroxy-1H-indazol-1-yl)methyl]benzamide], the Kb was at most 126 nM.
Consider `COc1cccc2c1c(NS(=O)(=O)c1ccc(Cl)s1)nn2Cc1cccc(CNC(=O)[C@@H]2CCN2)c1` [Example 159, (2S)—N-[(3-{[3-{[(5-Chloro-2-thienyl)sulfonyl]amino}-4-(methyloxy)-1H-indazol-1-yl]methyl}phenyl)methyl]-2-azetidinecarboxamide trifluoroacetate], for which the Kb is at most 126 nM.
Then `COc1cccc2c1c(NS(=O)(=O)c1ccc(Cl)s1)nn2Cc1cccc(CNC(=O)CN)c1` [Example 20, N^1-[(3-{[3-{[(5-chloro-2-thienyl)sulfonyl]amino}-4-(methyloxy)-1H-indazol-1-yl]methyl}phenyl)methyl]glycinamide trifluoroacetate], with at most 126 nM; and `CCN(CC)C(=O)c1ccc(Cn2nc(NS(=O)(=O)c3ccc(Cl)s3)c3c(OC)cccc32)cc1` [Example 163, 4-{[3-{[(5-Chloro-2-thienyl)sulfonyl]amino}-4-(methyloxy)-1H-indazol-1-yl]methyl}-N,N-diethylbenzamide], with over 1000 nM; and `COc1cccc2c1c(NS(=O)(=O)c1ccc(Cl)s1)nn2Cc1cccc(CNC(=O)[C@@H](C)N)c1` [Example 19, N^1-[(3-{[3-{[(5-chloro-2-thienyl)sulfonyl]amino}-4-(methyloxy)-1H-indazol-1-yl]methyl}phenyl)methyl]-D-alaninamide trifluoroacetate], with at most 126 nM.
`COc1cccc2c1c(NS(=O)(=O)c1ccc(Cl)s1)nn2Cc1cccc(CNC(=O)CCN)c1` [Example 78, N^1-[(3-{[3-{[(5-Chloro-2-thienyl)sulfonyl]amino}-4-(methyloxy)-1H-indazol-1-yl]methyl}phenyl)methyl]-β-alaninamide trifluoroacetate]: the Kb is at most 126 nM.
As for `CNC(=O)[C@@H](N)CC(=O)NCc1cccc(Cn2nc(NS(=O)(=O)c3ccc(Cl)s3)c3c(OC)cccc32)c1` [Example 22, N^4-[(3-{[3-{[(5-chloro-2-thienyl)sulfonyl]amino}-4-(methyloxy)-1H-indazol-1-yl]methyl}phenyl)methyl]-N^1-methyl-L-aspartamide trifluoroacetate], the Kb was at most 126 nM.
Then `COCC(=O)NCc1cccc(Cn2nc(NS(=O)(=O)c3ccc(Cl)s3)c3c(OC)cccc32)c1` [Example 30, N-[(3-{[3-{[(5-Chloro-2-thienyl)sulfonyl]amino}-4-(methyloxy)-1H-indazol-1-yl]methyl}phenyl)methyl]-2-(methyloxy)acetamide], with at most 126 nM; and `COc1cccc2c1c(NS(=O)(=O)c1ccc(Cl)s1)nn2Cc1cccc(CNC(=O)[C@@H](N)CCC(N)=O)c1` [Example 79, N^1-[(3-{[3-{[(5-Chloro-2-thienyl)sulfonyl]amino}-4-(methyloxy)-1H-indazol-1-yl]methyl}phenyl)methyl]-L-glutamamide formate salt], with at most 126 nM; and `COc1cccc2c1c(NS(=O)(=O)c1ccc(Cl)s1)nn2Cc1cccc(CNC(=O)CN(C)C)c1` [Example 86, N^1-[(3-{[3-{[(5-Chloro-2-thienyl)sulfonyl]amino}-4-(methyloxy)-1H-indazol-1-yl]methyl}phenyl)methyl]-N^2,N^2-dimethylglycinamide trifluoroacetate], with at most 126 nM.
`COc1ccc(F)c2c1c(NS(=O)(=O)c1ccc(Cl)s1)nn2Cc1cccc(C(N)=O)c1` [Example 68, 3-{[3-{[(5-Chloro-2-thienyl)sulfonyl]amino}-7-fluoro-4-(methyloxy)-1H-indazol-1-yl]methyl}benzamide]: the Kb is at most 126 nM.
Then `COc1cccc2c1c(NS(=O)(=O)c1ccc(Cl)s1)nn2Cc1cccc(OCCN(C)C)c1` [Example 74, 5-Chloro-N-[1-[(3-{[2-(dimethylamino)ethyl]oxy}phenyl)methyl]-4-(methyloxy)-1H-indazol-3-yl]-2-thiophenesulfonamide], with at most 126 nM.
